Results taken from US8283365B2, “Indole modulators of the alpha 7 nicotinic acetylcholine receptor” (Proximagen Limited, priority 2008, dated 2012).

Biological target: T1, human α7 nAChR (Homo sapiens, UniProt P36544)
T1 construct: expressed in transfected cells; host or cells: GH4C1 (rat pituitary) cell line, stably transfected
Test: FLIPR cell-based calcium flux assay for PAM activity at α7 nAChR (nicotine-evoked response)
Settings: GH4C1 cell line stably transfected with human α7 nAChR
Protocol: The PAM activity of the compounds of the invention at the α7 nAChR may be determined using the following cell-based calcium flux assay which uses a Fluorimetric Image Plate Reader (FLIPR) (see Schroeder et al.; J. Biomolecular Screening, 1(2), p 75-80, 1996).
GH4C1 cell line stably transfected with human α7 nAChR was suspended in a 384 well plate and incubated at 30° C. for 48 h in a 5% carbon dioxide atmosphere. The growth media was removed and the cells washed three times with a solution of Hanks' balanced salt solution (HBSS), 20 mM HEPES and 2.5 mM probenecid leaving 20 μl washing solution in each well. A loading solution (20 μl) containing HBSS, probenecid, 1-4 μM Fluo4 AM (a calcium indicator dye) and pluronic acid was added and the plate incubated for 45 min at 37° C. under an atmosphere free from carbon dioxide. The cells were washed three times leaving 30 μl in each well. The plate containing the cells and calcium indicator dye were then transferred to the FLIPR. The assay was initiated by collecting baseline datapoints at 10 second intervals followed by addition of the test compound in buffer solution (0.33% DMSO) and diluted to a final concentration of 10 μM and serial dilution of the wells, 1:2 or 1:3, gave a low concentration of <1 nM. Following a further 5-10 mins 10 μl of 50 μM nicotine was added and data collected for 2-3 mins. […]

T1 sequence (P36544 23-502): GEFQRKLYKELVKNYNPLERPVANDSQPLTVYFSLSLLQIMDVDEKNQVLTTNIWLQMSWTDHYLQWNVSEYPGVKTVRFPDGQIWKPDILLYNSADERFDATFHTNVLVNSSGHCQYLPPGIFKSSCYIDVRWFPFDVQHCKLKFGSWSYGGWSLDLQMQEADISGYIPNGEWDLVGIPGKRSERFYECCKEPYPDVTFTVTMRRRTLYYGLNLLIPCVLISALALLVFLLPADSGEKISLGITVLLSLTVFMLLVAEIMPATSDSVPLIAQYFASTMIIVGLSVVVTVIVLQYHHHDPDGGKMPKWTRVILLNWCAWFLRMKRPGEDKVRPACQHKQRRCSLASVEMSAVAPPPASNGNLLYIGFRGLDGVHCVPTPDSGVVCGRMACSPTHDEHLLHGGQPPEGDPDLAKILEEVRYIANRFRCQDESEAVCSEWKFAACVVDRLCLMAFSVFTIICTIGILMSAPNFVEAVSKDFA

## O=C(NCc1ccc2[nH]c(C(F)(F)F)cc2c1)c1ccc(C(F)(F)F)nc1 [Compound 1, N-[(2-Trifluoromethyl-1H-indol-5-yl)methyl]-6-(trifluoromethyl)-3-pyridinecarboxamide]
Potentiation of nicotine-evoked calcium flux
  EC50: < 1000 nM
Relative to nicotine control
  maximum potentiation of the response area relative to nicotine control: approximately 1200%
